Values of other authors as cited in US12527793B2, “Pharmaceutical compositions” (Shenzhen Pharmacin Co., Ltd., priority 2020, dated 2026).

Settings: background statement

| SMILES | Solubility in water |
| --- | --- |
| Cc1cn(-c2cc(NC(=O)c3ccc(C)c(Nc4nccc(-c5cccnc5)n4)c3)cc(C(F)(F)F)c2)cn1 [Nilotinib, 4-methyl-N-[3-(4-methyl-1H-imidazol-1-yl)-5-(trifluoromethyl)phenyl]-3-{[4-(pyridin-3-yl)pyrimidin-2-yl]amino}benzamide] | practically insoluble |

Settings: source footnote 1: Pallicer et al., ADMET & DMPK 2(2) (2014) 107-114

| SMILES | Experimental log P |
| --- | --- |
| O=c1cc(-c2ccc(O)cc2)oc2cc(O)cc(O)c12 [Apigenin] | 3.02^1 |
| CN(C)CCC(c1ccc(Br)cc1)c1ccccn1 (stereo not shown) [Brompheniramine] | 2.88^1 |
| CCCCN1CCCCC1C(=O)Nc1c(C)cccc1C (stereo not shown) [Bupivacaine] | 3.41^1 |
| Cc1ccc(-c2cc(C(F)(F)F)nn2-c2ccc(S(N)(=O)=O)cc2)cc1 [Celecoxib] | 3.91^1 |
| CN(C)CCC(c1ccc(Cl)cc1)c1ccccn1 (stereo not shown) [Chlorphenamine] | 3.17^1 |
| CN(C)CCCN1c2ccccc2Sc2ccc(Cl)cc21 [Chlorpromazine] | 5.27^1 |
| O=c1cc(-c2ccccc2)oc2cc(O)cc(O)c12 [Chrysin] | 3.52^1 |
| C=C[C@H]1CN2CC[C@H]1C[C@H]2[C@H](O)c1ccnc2ccccc12 [Cinchonidine] | 2.6^1 |
| CC(C)/N=c1\cc2n(-c3ccc(Cl)cc3)c3ccccc3nc-2cc1Nc1ccc(Cl)cc1 [Clofazimine] | 6.3^1 |
| CC(C)(Oc1ccc(Cl)cc1)C(=O)O [Clofibric acid] | 2.57^1 |
| COC(=O)[C@H](c1ccccc1Cl)N1CCc2sccc2C1 [Clopidogrel] | 4.52^1 |
| CCc1cc2c(s1)N(C)C(=O)CN=C2c1ccccc1Cl [Clotiazepam] | 3.49^1 |
| COc1ccc([C@@H]2Sc3ccccc3N(CCN(C)C)C(=O)[C@@H]2OC(C)=O)cc1 [Diltiazem] | 2.84^1 |
| CNCC[C@H](Oc1cccc2ccccc12)c1cccs1 [Duloxetine] | 4.54^1 |
| O=C(O)CCC(=O)c1ccc(-c2ccccc2)cc1 [Fenbufen] | 3.2^1 |
| O=C(O)c1ccccc1Nc1cccc(C(F)(F)F)c1 [Flufenamic acid] | 5.19^1 |

| SMILES | Experimental log P |
| --- | --- |
| CNCCC(Oc1ccc(C(F)(F)F)cc1)c1ccccc1 (stereo not shown) [Fluoxetine] | 4.42^1 |
| CCN(CC)CCN1C(=O)CN=C(c2ccccc2F)c2cc(Cl)ccc21 [Flurazepam] | 3.94^1 |
| CC(C(=O)O)c1ccc(-c2ccccc2)c(F)c1 (stereo not shown) [Flurbiprofen] | 3.84^1 |
| CCC1=C(C)CN(C(=O)NCCc2ccc(S(=O)(=O)NC(=O)N[C@H]3CC[C@H](C)CC3)cc2)C1=O [Glimepiride] | 3.97^1 |
| O=C(CCCN1CCC(O)(c2ccc(Cl)cc2)CC1)c1ccc(F)cc1 [Haloperidol] | 3.82^1 |
| COc1ccc([C@@H]2CC(=O)c3c(O)cc(O)cc3O2)cc1O [Hesperetin] | 2.60^1 |
| COc1ccc2c(c1)c(CC(=O)O)c(C)n2C(=O)c1ccc(Cl)cc1 [Indometacin] | 4.1^1 |
| O=C1C[C@@H](c2ccc(O)cc2)Oc2cc(O)cc(O)c21 [Naringenin] | 2.52^1 |
| OCCOCCN1CCN(C2=Nc3ccccc3Sc3ccccc32)CC1 [Quetiapine] | 3.13^1 |
| C=C[C@H]1C[N@@]2CC[C@H]1C[C@H]2[C@H](O)c1ccnc2ccc(OC)cc12 [Quinine] | 2.64^1 |
| CN(CCOc1ccc(CC2SC(=O)NC2=O)cc1)c1ccccn1 (stereo not shown) [Rosiglitazone] | 3.1^1 |
| CN[C@H]1CC[C@@H](c2ccc(Cl)c(Cl)c2)c2ccccc21 [Sertraline] | 5.17^1 |
| COc1cccc(C2(O)CCCCC2CN(C)C)c1 (stereo not shown) [Tramadol] | 2.7^1 |
| O=c1n(CCCN2CCN(c3cccc(Cl)c3)CC2)nc2ccccn12 [Trazodone] | 2.82^1 |
| COc1ccc(C(CN(C)C)C2(O)CCCCC2)cc1 (stereo not shown) [Venlafaxine] | 3.05^1 |

Same assay, conditions: source footnote 5: experimental values listed on www.drugbank.ca

| SMILES | Experimental log P |
| --- | --- |
| C=CC(=O)N1CCC[C@@H](n2nc(-c3ccc(Oc4ccccc4)cc3)c3c(N)ncnc32)C1 [Ibrutinib] | 3.97 ^5 |
| C[C@@H](Oc1cc(-c2cnn(C3CCNCC3)c2)cnc1N)c1c(Cl)ccc(F)c1Cl [crizotinib] | 1.83 ^5 |
| Cc1nc(Nc2ncc(C(=O)Nc3c(C)cccc3Cl)s2)cc(N2CCN(CCO)CC2)n1 [dasatinib] | 1.8 ^5 |
| CS(=O)(=O)CCNCc1ccc(-c2ccc3ncnc(Nc4ccc(OCc5cccc(F)c5)c(Cl)c4)c3c2)o1 [lapatinib] | 5.4 ^5 |
| CO[C@@H]1[C@H](N(C)C(=O)c2ccccc2)C[C@H]2O[C@]1(C)n1c3ccccc3c3c4c(c5c6ccccc6n2c5c31)C(=O)NC4 [midostaurin] | 5.89 ^5 |
| COC(=O)c1ccc2c(c1)NC(=O)/C2=C(\Nc1ccc(N(C)C(=O)CN2CCN(C)CC2)cc1)c1ccccc1 [nintedanib] | 3.0 ^5 |
| CNC(=O)c1cc(Oc2ccc(NC(=O)Nc3ccc(Cl)c(C(F)(F)F)c3)cc2)ccn1 [sorafenib] | 3.8 ^5 |
| CCCS(=O)(=O)Nc1ccc(F)c(C(=O)c2c[nH]c3ncc(-c4ccc(Cl)cc4)cc23)c1F [vemurafenib] | 5.1 ^5 |
